US11065257B2, “Substituted pyrazoloazepin-4-ones and their use as phosphodiesterase inhibitors” (LEO Pharma A/S, priority 2016, dated 2021)
pIC50: −log10 of the molar value.

target: T1, human PDE4D catalytic domain (Homo sapiens, UniProt Q08499); experiment: PDE4 Assay; assay type: biochemical; conditions: human PDE4D catalytic domain (S380-L740), TR-FRET with FAM-cAMP; expressed as a range of IC50; read-out: PDE4 Potency Range
T1 construct: UniProt no; Q08499 [S380-L740]
Method: The human PDE4D catalytic domain (UniProt no. Q08499 [S380-L740]) was incubated with a mixture of non-labelled cAMP (cyclic adenosine monophosphate) and fluorescein amidite (FAM) conjugated cAMP and titrated test or reference compound. Following brief incubation the enzymatic reaction was stopped by addition of binding buffer containing nanoparticles with immobilized trivalent metal ions capable of binding 1) AMP phospho groups and 2) terbium (Tb) donor fluorophores. Subsequent excitation of the Tb donor triggers time-resolved FRET to adjacent FAM acceptor molecules resulting in light emission. In the presence of a PDE4 inhibitor, AMP generation was reduced resulting in a lower fluorescence signal. The cAMP phosphodiester is not bound by the detection system.
The results were calculated as the molar concentrations resulting in 50% inhibition of the substrate cleavage compared to controls samples, and are expressed as a range of IC50 (nM).

T1 sequence (Q08499 380-740): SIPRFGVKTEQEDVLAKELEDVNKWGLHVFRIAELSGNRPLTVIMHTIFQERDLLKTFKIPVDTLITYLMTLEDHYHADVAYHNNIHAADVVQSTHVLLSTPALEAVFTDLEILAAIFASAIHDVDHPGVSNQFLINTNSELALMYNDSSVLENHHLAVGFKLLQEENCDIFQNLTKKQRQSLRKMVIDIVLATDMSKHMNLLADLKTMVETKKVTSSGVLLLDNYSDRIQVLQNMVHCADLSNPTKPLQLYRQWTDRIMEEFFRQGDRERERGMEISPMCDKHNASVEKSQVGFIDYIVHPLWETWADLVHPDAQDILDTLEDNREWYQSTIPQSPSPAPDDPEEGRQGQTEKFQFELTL

| Compound | pIC50 |
| --- | --- |
| CCc1nn(CCCOC(=O)c2ncc(C)cn2)c2c1C(=O)NCC1(CCOCC1)C2 [Example 66, 3-(3-ethyl-4-oxo-spiro[6,8-dihydro-5H-pyrazolo[4,3-c]azepine-7,4′-tetrahydropyran]-1-yl)propyl 5-methylpyrimidine-2-carboxylate] | < 6.30 |
| CCc1nn(CCCOC(=O)c2c(C)noc2C)c2c1C(=O)NCC1(CCOCC1)C2 [Example 75, 3-(3-ethyl-4-oxo-spiro[6,8-dihydro-5H-pyrazolo[4,3-c]azepine-7,4′-tetrahydropyran]-1-yl)propyl 3,5-dimethylisoxazole-4-carboxylate] | < 6.30 |
| CCc1nn(CCCOC(=O)C2CN(C(C)=O)C2)c2c1C(=O)NCC1(CCOCC1)C2 [Example 77, 3-(3-ethyl-4-oxo-spiro[6,8-dihydro-5H-pyrazolo[4,3-c]azepine-7,4′-tetrahydropyran]-1-yl)propyl 1-acetylazetidine-3-carboxylate] | < 6.30 |
| CCc1nn(CCCOC(=O)c2ocnc2C)c2c1C(=O)NCC1(CCOCC1)C2 [Example 47, 3-(3-ethyl-4-oxo-spiro[6,8-dihydro-5H-pyrazolo[4,3-c]azepine-7,4′-tetrahydropyran]-1-yl)propyl 4-methyloxazole-5-carboxylate] | 6.30 to 7.00 |
| CCc1nn(CCCOC(=O)c2ccsn2)c2c1C(=O)NCC1(CCOCC1)C2 [Example 53, 3-(3-ethyl-4-oxo-spiro[6,8-dihydro-5H-pyrazolo[4,3-c]azepine-7,4′-tetrahydropyran]-1-yl)propyl isothiazole-3-carboxylate] | 6.30 to 7.00 |
| CCc1nn(CCCOC(=O)c2ccnnc2)c2c1C(=O)NCC1(CCOCC1)C2 [Example 30, 3-(3-ethyl-4-oxo-spiro[6,8-dihydro-5H-pyrazolo[4,3-c]azepine-7,4′-tetrahydropyran]-1-yl)propyl pyridazine-4-carboxylate] | < 6.30 |
| CCc1nn(CCCOC(=O)c2cnc(C)nc2)c2c1C(=O)NCC1(CCOCC1)C2 [Example 70, 3-(3-ethyl-4-oxo-spiro[6,8-dihydro-5H-pyrazolo[4,3-c]azepine-7,4′-tetrahydropyran]-1-yl)propyl 2-methylpyrimidine-5-carboxylate] | 6.30 to 7.00 |
| CCc1nn(CCCOC(=O)c2cccc(C)n2)c2c1C(=O)NCC1(CCOCC1)C2 [Example 64, 3-(3-ethyl-4-oxo-spiro[6,8-dihydro-5H-pyrazolo[4,3-c]azepine-7,4′-tetrahydropyran]-1-yl)propyl 6-methylpyridine-2-carboxylate] | < 6.30 |
| CCc1nn(CCCOC(=O)c2cc(C)n(C)n2)c2c1C(=O)NCC1(CCOCC1)C2 [Example 72, 3-(3-ethyl-4-oxo-spiro[6,8-dihydro-5H-pyrazolo[4,3-c]azepine-7,4′-tetrahydropyran]-1-yl)propyl 1,5-dimethylpyrazole-3-carboxylate] | < 6.30 |
| CCc1nn(C[C@@H](C)COC(=O)C2CCOCC2)c2c1C(=O)NCC1(CCOCC1)C2 [Example 109, [(2R)-3-(3-ethyl-4-oxo-spiro[6,8-dihydro-5H-pyrazolo[4,3-c]azepine-7,4′-tetrahydropyran]-1-yl)-2-methyl-propyl] tetrahydropyran-4-carboxylate] | > 7.00 |
| CCc1nn(CCCOC(=O)c2nccn2C)c2c1C(=O)NCC1(CCOCC1)C2 [Example 40, 3-(3-ethyl-4-oxo-spiro[6,8-dihydro-5H-pyrazolo[4,3-c]azepine-7,4′-tetrahydropyran]-1-yl)propyl 1-methylimidazole-2-carboxylate] | 6.30 to 7.00 |
| CCc1nn(CCCOC(=O)c2cocn2)c2c1C(=O)NCC1(CCOCC1)C2 [Example 23, 3-(3-ethyl-4-oxo-spiro[6,8-dihydro-5H-pyrazolo[4,3-c]azepine-7,4′-tetrahydropyran]-1-yl)propyl oxazole-4-carboxylate] | < 6.30 |
| CCc1nn(CCCOC(=O)c2cnsc2)c2c1C(=O)NCC1(CCOCC1)C2 [Example 55, 3-(3-ethyl-4-oxo-spiro[6,8-dihydro-5H-pyrazolo[4,3-c]azepine-7,4′-tetrahydropyran]-1-yl)propyl isothiazole-4-carboxylate] | 6.30 to 7.00 |
| CCc1nn(CCCOC(=O)C2CCCN(C(=O)N(C)C)C2)c2c1C(=O)NCC1(CCOCC1)C2 (stereo not drawn) [Example 106, 3-(3-ethyl-4-oxo-spiro[6,8-dihydro-5H-pyrazolo[4,3-c]azepine-7,4′-tetrahydropyran]-1-yl)propyl 1-(dimethylcarbamoyl)piperidine-3-carboxylate] | 6.30 to 7.00 |
| CCc1nn(CCOC(=O)Cc2cc(C)on2)c2c1C(=O)NCC1(CCOCC1)C2 [Example 11, 2-(3-ethyl-4-oxo-spiro[6,8-dihydro-5H-pyrazolo[4,3-c]azepine-7,4′-tetrahydropyran]-1-yl)ethyl 2-(5-methylisoxazol-3-yl)acetate] | < 6.30 |
| CCc1nn(CCOC(=O)c2nc(C)cs2)c2c1C(=O)NCC1(CCOCC1)C2 [Example 14, 2-(3-ethyl-4-oxo-spiro[6,8-dihydro-5H-pyrazolo[4,3-c]azepine-7,4′-tetrahydropyran]-1-yl)ethyl 4-methylthiazole-2-carboxylate] | 6.30 to 7.00 |
| CCc1nn(CCCOC(=O)C2CCCN(C(C)=O)C2)c2c1C(=O)NCC1(CCOCC1)C2 (stereo not drawn) [Example 98, 3-(3-ethyl-4-oxo-spiro[6,8-dihydro-5H-pyrazolo[4,3-c]azepine-7,4′-tetrahydropyran]-1-yl)propyl 1-acetylpiperidine-3-carboxylate] | < 6.30 |
| CCc1nn(CCCOC(=O)c2cncs2)c2c1C(=O)NCC1(CCOCC1)C2 [Example 56, 3-(3-ethyl-4-oxo-spiro[6,8-dihydro-5H-pyrazolo[4,3-c]azepine-7,4′-tetrahydropyran]-1-yl)propyl thiazole-5-carboxylate] | 6.30 to 7.00 |
| CCc1nn(CC(C)(C)COC(=O)C2CCOCC2)c2c1C(=O)NCC1(CCOCC1)C2 [Example 111, [3-(3-ethyl-4-oxo-spiro[6,8-dihydro-5H-pyrazolo[4,3-c]azepine-7,4′-tetrahydropyran]-1-yl)-2,2-dimethyl-propyl] tetrahydropyran-4-carboxylate] | 6.30 to 7.00 |
| CCc1nn(CCCOC(=O)c2cc(C)on2)c2c1C(=O)NCC1(CCOCC1)C2 [Example 44, 3-(3-ethyl-4-oxo-spiro[6,8-dihydro-5H-pyrazolo[4,3-c]azepine-7,4′-tetrahydropyran]-1-yl)propyl 5-methylisoxazole-3-carboxylate] | 6.30 to 7.00 |
| CCc1nn(CCCOC(=O)c2cc(C)nn2CC)c2c1C(=O)NCC1(CCOCC1)C2 [Example 90, 3-(3-ethyl-4-oxo-spiro[6,8-dihydro-5H-pyrazolo[4,3-c]azepine-7,4′-tetrahydropyran]-1-yl)propyl 2-ethyl-5-methyl-pyrazole-3-carboxylate] | 6.30 to 7.00 |
| CCc1nn(CCCOC(=O)c2cc(C)nnc2C)c2c1C(=O)NCC1(CCOCC1)C2 [Example 88, 3-(3-ethyl-4-oxo-spiro[6,8-dihydro-5H-pyrazolo[4,3-c]azepine-7,4′-tetrahydropyran]-1-yl)propyl 3,6-dimethylpyridazine-4-carboxylate] | < 6.30 |
| CCc1nn(CCCOC(=O)c2cc(C)ccn2)c2c1C(=O)NCC1(CCOCC1)C2 [Example 63, 3-(3-ethyl-4-oxo-spiro[6,8-dihydro-5H-pyrazolo[4,3-c]azepine-7,4′-tetrahydropyran]-1-yl)propyl 4-methylpyridine-2-carboxylate] | < 6.30 |
| CCc1nn(CC(C)(C)COC(=O)C2CCOC2)c2c1C(=O)NCC1(CCOCC1)C2 (stereo not drawn) [Example 110, [3-(3-ethyl-4-oxo-spiro[6,8-dihydro-5H-pyrazolo[4,3-c]azepine-7,4′-tetrahydropyran]-1-yl)-2,2-dimethyl-propyl] tetrahydrofuran-3-carboxylate] | 6.30 to 7.00 |
| CCc1nn(CCCOC(=O)c2nnc(C)[nH]2)c2c1C(=O)NCC1(CCOCC1)C2 [Example 50, 3-(3-ethyl-4-oxo-spiro[6,8-dihydro-5H-pyrazolo[4,3-c]azepine-7,4′-tetrahydropyran]-1-yl)propyl 5-methyl-4H-1,2,4-triazole-3-carboxylate] | < 6.30 |
| CCc1nn(CCCOC(=O)c2ncccn2)c2c1C(=O)NCC1(CCOCC1)C2 [Example 31, 3-(3-ethyl-4-oxo-spiro[6,8-dihydro-5H-pyrazolo[4,3-c]azepine-7,4′-tetrahydropyran]-1-yl)propyl pyrimidine-2-carboxylate] | < 6.30 |
| CCc1nn(CCCOC(=O)c2ccn(C)n2)c2c1C(=O)NCC1(CCOCC1)C2 [Example 32, 3-(3-ethyl-4-oxo-spiro[6,8-dihydro-5H-pyrazolo[4,3-c]azepine-7,4′-tetrahydropyran]-1-yl)propyl 1-methylpyrazole-3-carboxylate] | < 6.30 |
| CCc1nn(CCCOC(=O)C2CCN(C(C)=O)CC2)c2c1C(=O)NCC1(CCOCC1)C2 [Example 99, 3-(3-ethyl-4-oxo-spiro[6,8-dihydro-5H-pyrazolo[4,3-c]azepine-7,4′-tetrahydropyran]-1-yl)propyl 1-acetylpiperidine-4-carboxylate] | < 6.30 |
| CCc1nn(CCCOC(=O)c2cc(C)n[nH]2)c2c1C(=O)NCC1(CCOCC1)C2 [Example 33, 3-(3-ethyl-4-oxo-spiro[6,8-dihydro-5H-pyrazolo[4,3-c]azepine-7,4′-tetrahydropyran]-1-yl)propyl 5-methyl-1H-pyrazole-3-carboxylate] | 6.30 to 7.00 |
| CCc1nn(CCOC(=O)C2CCN(C(C)=O)CC2)c2c1C(=O)NCC1(CCOCC1)C2 [Example 16, 2-(3-ethyl-4-oxo-spiro[6,8-dihydro-5H-pyrazolo[4,3-c]azepine-7,4′-tetrahydropyran]-1-yl)ethyl 1-acetylpiperidine-4-carboxylate] | < 6.30 |
